# Publication PMC11551755, “Structure-based discovery of first inhibitors targeting the helicase activity of human PIF1” (Nucleic Acids Research, 2024)
# Several values for one entry are separate records, joined by “and”; a condition that tells them apart may be missing. Identical values can stand only once. Like-named read-outs stand apart in the source and are kept apart here.
# Tests used:
# [1] = target: T1, FLhPIF1 (full length human PIF1) (Homo sapiens, UniProt Q9H611); assay: radiometric strand displacement helicase assay, no pre-incubation; type: biochemical; conditions: for inhibition at 1000 µM: 1 mM single point, gel-based DNA unwinding assay, four repeats (S4 n=3); for IC50: n = 3
# T1 construct: Full length human PIF1 (FLhPIF1) was expressed and purified as a His-SUMO fusion; His-SUMO (cleaved yes); made in house; 'following similar protocols' to hPIF1HD (ArcticExpress BL21(DE3) E. coli)
# T1 sequence (Q9H611 1-641): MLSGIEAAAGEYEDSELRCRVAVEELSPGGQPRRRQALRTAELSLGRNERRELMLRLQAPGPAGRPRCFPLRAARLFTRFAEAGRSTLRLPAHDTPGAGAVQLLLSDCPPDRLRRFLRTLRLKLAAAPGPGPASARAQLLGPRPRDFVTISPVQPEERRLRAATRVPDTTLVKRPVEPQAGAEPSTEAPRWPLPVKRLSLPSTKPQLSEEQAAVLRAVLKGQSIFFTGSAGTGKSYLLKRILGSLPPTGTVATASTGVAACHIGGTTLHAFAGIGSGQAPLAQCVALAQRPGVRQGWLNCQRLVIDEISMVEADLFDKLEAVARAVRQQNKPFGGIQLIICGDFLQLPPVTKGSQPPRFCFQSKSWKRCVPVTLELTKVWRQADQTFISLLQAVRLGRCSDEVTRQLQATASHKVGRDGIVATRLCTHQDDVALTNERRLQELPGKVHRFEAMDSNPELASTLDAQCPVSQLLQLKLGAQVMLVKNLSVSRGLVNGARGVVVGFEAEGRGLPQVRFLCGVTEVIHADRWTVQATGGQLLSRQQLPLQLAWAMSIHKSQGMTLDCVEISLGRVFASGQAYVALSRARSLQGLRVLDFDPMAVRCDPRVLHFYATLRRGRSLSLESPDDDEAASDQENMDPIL
# Experimental: Helicase activity was assayed using a radiometric strand displacement assay employing a partially single- and double-stranded substrate generated by annealing two oligonucleotides: 5′-(T)55-[…] and 5′-[…], as described previously ([19],[28]). […] SMIs (100 mM stocks in DMSO) were assayed at up to 2 mM without pre-incubation with FLhPIF1, unless otherwise stated. […] Dried gels were exposed to phosphorimaging plates (Fujifilm) for imaging and quantification (Fuji FLA3000, image gauge V3.3 software). IC50 values were analysed by non-linear regression (variable slope) using GraphPad Prism.
# FLhPIF1 = target: T2, FLhPIF1 (Homo sapiens, UniProt Q9H611); assay: helicase assay after pre-incubation of SMI with FLhPIF1; type: biochemical
# T2 construct: Full length human PIF1 (FLhPIF1) was expressed and purified as a His-SUMO fusion; His-SUMO (cleaved yes); made in house; 'following similar protocols' to hPIF1HD (ArcticExpress BL21(DE3) E. coli)
# T2 sequence (Q9H611 1-641): T1 sequence (Q9H611 1-641)
# Experimental: Helicase activity was assayed using a radiometric strand displacement assay employing a partially single- and double-stranded substrate generated by annealing two oligonucleotides: 5′-(T)55-[…] and 5′-[…], as described previously ([19],[28]). The reaction buffer was 20 mM HEPES–NaOH pH 7.5, 20 mM NaCl, 5.5 mM MgCl2, 5 mM ATP, 1 mM DTT and 0.1 mg/ml BSA. SMIs (100 mM stocks in DMSO) were assayed at up to 2 mM without pre-incubation with FLhPIF1, unless otherwise stated. Reactions (0.1 nM substrate) were incubated at 37°C for 20 min, followed by addition of 0.2 volumes of 120 mM EDTA, 0.6% (w/v) SDS, 60% (v/v) glycerol and 0.1% (w/v) bromophenol blue before resolution of products by polyacrylamide gel electrophoresis (8%, 19:1 acrylamide:bis-acrylamide), 1× TBE (90 mM Tris–borate/2 mM EDTA, pH 8.3 with 0.05% (w/v) SDS buffer). Dried gels were exposed to phosphorimaging plates (Fujifilm) for imaging and quantification (Fuji FLA3000, image gauge V3.3 software). IC50 values were analysed by non-linear regression (variable slope) using GraphPad Prism.
# First, we screened inhibitory activity of the SMIs listed in Table 1, following incubation of 100 nM FLhPIF1 with 100 μM SMI for 1 h at 22°C in the absence of substrates (ATP and DNA), before a 1:10 dilution into helicase reactions. […] Next, compounds 2, 5, 6 and 11, along with 4 and 1D were selected for analysis in a pre-incubation time-course (100 nM FLhPIF1, 100 μM SMI), up to 3 h before assaying helicase activity.
# In parallel, IC50 values for inhibition of human UPF1 (hUPF1) helicase activity by the SMIs were also determined under the same conditions. UPF1-like SF1B helicases are the most closely related family of helicases to PIF1, with significant structural and mechanistic similarity ([52]).
# Figure 6. SMI IC50 for dsDNA unwinding determined following pre-incubation. SMIs (0.0078–2 mM SMI) were incubated for 2 h at 22°C (100 nM FLhPIF1 or hUPF1) before dilution (1:10) in the standard helicase assay (0.1 nM DNA substrate). For 1D and 6, structures, electrophoresis of FLhPIF1 reaction product and graphs for IC50 value determination are shown. The graphed data include the activity of SMIs towards hUPF1 and IC50 values obtained are given. See Supplementary Figure S14 for the complete data set. TEXT PRINTED IN THE PICTURE: 1D: IC50 (μM): PIF1: 978 ± 221; IC50 (μM): UPF1: N.D. | 6: IC50 (μM): PIF1: 79.4 ± 16; IC50 (μM): UPF1: 1750 ± 426
# [2] = 0.0078–2 mM compound, 10 nM FLhPIF1, 0.1 nM DNA substrate, no pre-incubation, read-out: IC50 for inhibition of FLhPIF1 helicase activity
SMILES,inhibition at 1000 µM [1] [%],other results
CC(=O)Nc1ccc(-c2csc(N)n2)cc1 [Compound 1E],,"helicase inhibitory activity compared to commercial batches 1A–1C ([1]; 0.0078-2 mM, no pre-incubation): significantly lower inhibitory activities"
CC(=O)Nc1ccc(-c2csc(NC(C)=O)n2)cc1 [Compound 7],57 ± 14.7,"fold increase in inhibition at 1 mM relative to compound 1 ([1]; 1 mM single point helicase screen): 4 fold; IC50 [1, 2]: 569 ± 139 µM"
CNCCNc1cc(-c2csc(N)n2)ccc1[N+](=O)[O-] [Compound 8],77.8 ± 7.9,"IC50 [1, 2]: 176 ± 6 µM"
CC(=O)Nc1ccc(-c2csc(N)n2)cc1N1CCNCC1 [Compound 9],69.1 ± 5.5,"IC50 [1, 2]: 307 ± 16 µM"
CC(=O)Nc1ccc(-c2csc(C)n2)cc1 [S2],-3 ± 2.8,inhibition of FLhPIF1 helicase activity in 1 mM single-point screen [1]: only minimal activity
CNc1nc(-c2ccc(NC(C)=O)cc2)cs1 [S3],-6.4 ± 2,
COc1nc(-c2ccc(NC(C)=O)cc2)cs1 [S4],9.6 ± 2.8,inhibition of FLhPIF1 helicase activity in 1 mM single-point screen [1]: only minimal activity
CCN(CC)C(=O)c1ccc(-c2csc(N)n2)cc1 [S14],-4.6 ± 2.8,
Nc1nc(-c2ccc(Oc3ccccc3)cc2)cs1 [S17],61.7 ± 8.2,
COC(=O)Cc1ccc(-c2csc(N)n2)cc1 [S20],35.9 ± 9.9,
CCN(CC)c1cc(-c2csc(N)n2)ccc1NC(C)=O [S47],24.6 ± 8.9,
CC(=O)Nc1ccc(-c2csc(N)n2)cc1N1CCOCC1 [S48],11.5 ± 3.7,
CC(=O)Nc1ccc(-c2csc(N)n2)cc1N1CCN(C)CC1 [S49],24.3 ± 5.9,
CC(=O)Nc1ccc(-c2csc(N)n2)cc1OC1CCCC1 [S51],50 ± 4.2,
CC(=O)Nc1ccc(-c2csc(N)n2)cc1-c1cccnc1 [S55],-17.3 ± 5,inhibition of FLhPIF1 helicase activity in 1 mM single-point screen [1]: did not display any inhibitory activity at all
CC(=O)Nc1ccc(-c2csc(N)n2)cc1-c1cnn(C)c1 [S56],-16.9 ± 4.5,inhibition of FLhPIF1 helicase activity in 1 mM single-point screen [1]: did not display any inhibitory activity at all

# Further lines, with some results ahead:
inhibition at 1000 µM [1] [%],SMILES,other results
14.2 ± 7,CC(=O)Nc1ccc(-c2csc(N)n2)cc1 [Compound 1F],"IC50 [1, 2]: ~1160 µM and 1160 µM; IC50 ([1]; no pre-incubation, value with large error, read-out: IC50 against FLhPIF1 helicase): ~1200 µM"
85.6 ± 5.1,Nc1nc(-c2ccc([N+](=O)[O-])cc2)cs1 [Compound 3],"IC50 [1, 2]: 184 ± 13 µM"
72.4 ± 4.5,COC(=O)c1ccc(-c2csc(N)n2)cc1 [Compound 4],"IC50 (FLhPIF1; 2 h pre-incubation at 22°C with 100 nM FLhPIF1, then 1:10 dilution into helicase assay, read-out: IC50 for dsDNA unwinding by FLhPIF1 following pre-incubation): 300 ± 66 µM; increase in inhibition of FLhPIF1 DNA unwinding after pre-incubation (FLhPIF1; 3 h pre-incubation, 100 nM FLhPIF1, 100 μM SMI): 5–10%; IC50 [1, 2]: 78 ± 4 µM"
-8.1 ± 1.9,Cc1cccc(-c2csc(N)n2)c1 [S7],
43.9 ± 5.7,Cc1ccc(-c2csc(N)n2)cc1 [S8],inhibition of FLhPIF1 helicase activity in 1 mM single-point screen [1]: incapable of inhibiting FLhPIF1 helicase activity effectively
-12.6 ± 4.6,N#Cc1cccc(-c2csc(N)n2)c1 [S9],
59.5 ± 1.7,Nc1nc(-c2cccc(OC(F)(F)F)c2)cs1 [S10],
58.3 ± 9.1,Nc1nc(-c2ccc(OC(F)(F)F)cc2)cs1 [S11],
-11 ± 1,COC(=O)c1cccc(-c2csc(N)n2)c1 [S12],
0.2 ± 1.4,CCCNC(=O)c1cccc(-c2csc(N)n2)c1 [S13],
37.9 ± 4.3,CNC(=O)c1ccc(-c2csc(N)n2)cc1 [S15],
25.9 ± 3.2,CCOc1ccc(-c2csc(N)n2)cc1 [S16],
-6.7 ± 7.3,Nc1nc(-c2ccc(-c3ccccc3)cc2)cs1 [S18],inhibition of FLhPIF1 helicase activity in 1 mM single-point screen [1]: incapable of inhibiting FLhPIF1 helicase activity effectively
46.6 ± 15.5,CS(=O)(=O)c1ccc(-c2csc(N)n2)cc1 [S19],
-17.3 ± 4.2,Nc1nc(-c2ccc(S(N)(=O)=O)cc2)cs1 [S21],
10.4 ± 3.3,CC(=O)Nc1ccc(-c2csc(N)n2)cc1C(C)=O [S24],
42.5 ± 13.5,CC(=O)Nc1ccc(-c2csc(N)n2)cc1C(C)O (centres unmarked) [S25],
22.1 ± 5,COc1cc(-c2csc(N)n2)ccc1NC(C)=O [S50],
